This is an account of results in US20040086479A1, “Novel dendritic polymers, crosslinked gels, and their biomedical uses” (DUKE UNIVERSITY, priority 2001, published 2004).

The nature of this data set: Water solubility. The class given is physicochemical.

≈ marks a conversion by molar mass, not a printed value.

`CC[C@@]1(O)C(=O)OCc2c1cc1n(c2=O)Cc2cc3cc(O)ccc3nc2-1` [Example 10HCPT, 10-hydroxycamptothecin] returned a water solubility of approximately 6 µM (≈ 2.19 µg/mL).

On to `[O-]c1c(-c2ccccc2)cc(-[n+]2c(-c3ccccc3)cc(-c3ccccc3)cc2-c2ccccc2)cc1-c1ccccc1` [Reichardt's dye], for which the water solubility is reported as 10^−6 M.
